Data published in patent publication US20240239752A1, “BICYCLIC HETEROAROMATIC INHIBITORS OF KLK5” (BioCryst Pharmaceuticals, Inc., priority 2021, published 2024).

The compounds below were run against T1, recombinant human KLK5 (Homo sapiens, UniProt Q9Y337) (assay: Kallikrein (KLK) 5 enzymatic assay (Boc-VPR-AMC fluorogenic substrate)). Settings: recombinant human KLK5 0.1 μg/well, Boc-VPR-AMC 100 μM, pH 7.5, room temperature, 1% DMSO; tested a minimum of three times.
T1 construct: purchased Novoprotein or R&D Systems C415 or 1108-SE
T1 sequence (Q9Y337 23-293): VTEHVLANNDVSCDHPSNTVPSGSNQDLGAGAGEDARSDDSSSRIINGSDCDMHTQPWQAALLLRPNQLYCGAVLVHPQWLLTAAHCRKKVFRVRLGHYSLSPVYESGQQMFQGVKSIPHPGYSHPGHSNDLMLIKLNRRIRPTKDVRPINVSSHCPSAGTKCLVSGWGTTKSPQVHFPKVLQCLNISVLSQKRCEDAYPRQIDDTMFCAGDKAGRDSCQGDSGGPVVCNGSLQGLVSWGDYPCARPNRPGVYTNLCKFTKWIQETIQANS
Format: biochemical
Excerpt: Kallikrein-5 (KLK5) is a member of the serine protease family of proteolytic enzymes, confirmed to have trypsin-like activity (Michael I P, et al. Biochemical and enzymatic characterization of human kallikrein 5 (hK5), a novel serine protease potentially involved in cancer progression (J. Biol. Chem. 2005 Apr. 15; 280 (15): 14628-35). Boc-VPR-AMC is a fluorogenic peptide substrate composed of the short peptide chain, Valine-Proline-Arginine (VPR) and the fluorophore, 7-amino-4-methylcoumarin (AMC). KLK5 is able to cleave the fluorogenic peptide substrate Boc-VPR-AMC, releasing the AMC fluorophore, which causes a fluorescent emission in proportion with the enzymatic activity of KLK5. The KLK5 enzymatic activity is monitored by measuring fluorescent emission at wavelengths of 380 nm (excitation) and 460 nm (emission).
The IC50 value of compounds against KLK5 (i.e., the concentration of the compound that inhibits 50% of the enzymatic activity) was calculated according to the procedure reported by R&D systems (Recombinant human KLK5, Catalog Number: 1108-SE), with the exception the pH of the assay was modified from 8.0 to 7.5. Specifically, recombinant human KLK5 (Novoprotein Catalog #C415 or R&D systems Catalog #1108-SE) and fluorogenic peptide Boc-VPR-AMC substrate (R&D Catalog #ES011) were each separately diluted in assay buffer (0.1 M NaH2PO4 buffer, pH 7.5). The compounds of the disclosure were dissolved in DMSO at a concentration of 10 mM. A portion of this stock solution was added to the recombinant human KLK5 solution to provide a desired concentration of the compounds and the mixture was incubated at room temperature. The reaction was initiated by the addition of the fluorogenic peptide substrate at room temperature. The final concentration of recombinant human KLK5 was 0.1 μg/well and the final concentration of the fluorogenic substrate was 100 μM (final volume of 100 μL, 1% DMSO). The assays were performed in 96 well F16 Black Maxisorp Plate (Nunc Catalog #475515). Controls included assay buffer alone and enzyme solutions to which DMSO was added. The reaction rates were measured spectrophotometrically by excitation at 380 nm and emission at 460 nm on a Biotek Synergy H1 plate reader.
The reaction rate for enzyme alone was compared to the reaction rate of enzyme in the presence of compound and the percent inhibition was calculated as shown below:
Percent Inhibition=[Rate with inhibitor/Rate without inhibitor)]×100
An IC50 indicates a compound concentration that inhibits 50% of the enzymatic activity. Compounds were tested a minimum of three times.

`CCC(=O)N1CCC2(CC1)CC(Oc1ccccc1CC(=O)O)c1cc(-c3cccc4c(N)nccc34)ccc12` (single isomer, unassigned; (+)) [Compound 385d, (+)-2-(2-((5-(1-aminoisoquinolin-5-yl)-1′-propionyl-2,3-dihydrospiro[indene-1,4′-piperidin]-3-yl)oxy)phenyl)acetic acid] and `Nc1nccc2c(-c3ccc4nn(C5CCCC5)c(COc5ccccc5CC(=O)O)c4c3)cccc12` [Compound 21e, 2-(2-((5-(1-aminoisoquinolin-5-yl)-2-cyclopentyl-2H-indazol-3-yl)methoxy)phenyl)acetic acid] cannot be ordered by IC50: under 1000 nM for the first, under 1000 nM for the second.

First: CCC(=O)N1CCC2(CC1)CC(Oc1ccccc1CC(=O)O)c1cc(-c3cccc4c(N)nccc34)ccc12 (single isomer, unassigned; (-)) [Compound 385e, (−)-2-(2-((5-(1-aminoisoquinolin-5-yl)-1′-propionyl-2,3-dihydrospiro[indene-1,4′-piperidin]-3-yl)oxy)phenyl)acetic acid]
Second: Nc1nccc2c(-c3ccc4nn(C5CCCCC5)c(COc5ccccc5CC(=O)O)c4c3)cccc12 [Compound 14f, 2-(2-((5-(1-aminoisoquinolin-5-yl)-2-cyclohexyl-2H-indazol-3-yl)methoxy)phenyl)acetic acid]
The IC50 of the first is lower: under 1000 nM for the first, 1000 to 10000 nM for the second.

`COc1ccc(CC(=O)O)c(OCc2c(C)oc3ccc(-c4cccc(C(=N)N)c4)cc23)c1` [7 g, 2-(2-((5-(3-carbamimidoylphenyl)-2-methylbenzofuran-3-yl)methoxy)-4-methoxyphenyl)acetic acid] and `COc1ccc(CC(=O)O)c(OCc2nn(C(C)C)c3ccc(-c4cccc(C(=N)N)c4)cc23)c1` [Compound 5e, 2-(2-((5-(3-carbamimidoylphenyl)-1-isopropyl-1H-indazol-3-yl)methoxy)-4-methoxyphenyl)acetic acid] cannot be ordered by IC50: under 1000 nM for the first, under 1000 nM for the second.

First: CC(C)n1nc(C(=O)Nc2ccccc2C(=O)O)c2cc(-c3cccc(C(=N)N)c3)ccc21 [Compound 1i, 2-(5-(3-carbamimidoylphenyl)-1-isopropyl-1H-indazole-3-carboxamido)benzoic acid]
Second: CC(C)n1nc(C(=O)Nc2ccccc2C(=O)O)c2cc(-c3ccc(C(=N)N)cc3)ccc21 [Compound 3b, 2-(5-(4-carbamimidoylphenyl)-1-isopropyl-1H-indazole-3-carboxamido)benzoic acid]
The IC50 of the first is lower: 1000 to 10000 nM for the first, over 10000 nM for the second.

Compared with `CC(C)n1nc(COc2ccccc2CC(=O)O)c2cc(-c3ccc(C(=N)N)cc3)ccc21` [Compound 2g, 2-(2-((5-(4-carbamimidoylphenyl)-1-isopropyl-1H-indazol-3-yl)methoxy)phenyl)acetic acid], `CC(C)n1nc(COc2ccccc2CC(=O)O)c2cc(-c3cccc(C(=N)N)c3)ccc21` [Compound 6b, 2-(2-((5-(3-carbamimidoylphenyl)-1-isopropyl-1H-indazol-3-yl)methoxy)phenyl)acetic acid] is lower in IC50: over 10000 nM for the first, under 1000 nM for the second.

`Cn1nc(COc2ccccc2CC(=O)O)c2cc(-c3cccc(C(=N)N)c3)ccc21` [Compound 4e, 2-(2-((5-(3-carbamimidoylphenyl)-1-methyl-1H-indazol-3-yl)methoxy)phenyl)acetic acid] and `N=C(N)c1cccc(-c2ccc3nn(C4CCCC4)c(COc4ccccc4CC(=O)O)c3c2)c1` [Compound 22c, 2-(2-((5-(3-carbamimidoylphenyl)-2-cyclopentyl-2H-indazol-3-yl)methoxy)phenyl)acetic acid] cannot be ordered by IC50: under 1000 nM for the first, under 1000 nM for the second.

Compared with `Nc1nccc2c(-c3ccc4nn(C5CCOC5)c(COc5ccccc5CC(=O)O)c4c3)cccc12` (stereo not drawn) [Compound 8g, 2-(2-((5-(1-aminoisoquinolin-5-yl)-2-(tetrahydrofuran-3-yl)-2H-indazol-3-yl)methoxy)phenyl)acetic acid], `Cc1ccc(CC(=O)O)c(OCc2c3cc(-c4cccc5c(N)nccc45)ccc3nn2C2CCC2)c1` [Compound 18c, 2-(2-((5-(1-aminoisoquinolin-5-yl)-2-cyclobutyl-2H-indazol-3-yl)methoxy)-4-methylphenyl)acetic acid] is higher in IC50: under 1000 nM for the first, 1000 to 10000 nM for the second.

`CC1CC(n2nc(COc3ccccc3CC(=O)O)c3cc(-c4ccc5ccnc(N)c5c4)ccc32)C1` (stereo not drawn) [Compound 9j, 2-(2-((5-(1-aminoisoquinolin-7-yl)-1-(3-methylcyclobutyl)-1H-indazol-3-yl)methoxy)phenyl)acetic acid] and `Nc1nccc2ccc(-c3ccc4c(c3)c(COc3ccccc3CC(=O)O)nn4C3CC(F)(F)C3)cc12` [Compound 11e, 2-(2-((5-(1-aminoisoquinolin-7-yl)-1-(3,3-difluorocyclobutyl)-1H-indazol-3-yl)methoxy)phenyl)acetic acid] cannot be ordered by IC50: under 1000 nM for the first, under 1000 nM for the second.

First: CC(C)(C)OC(=O)N1CC(n2nc(COc3ccccc3CC(=O)O)c3cc(-c4ccc5ccnc(N)c5c4)ccc32)C1 [Compound 10e, 2-(2-((5-(1-aminoisoquinolin-7-yl)-1-(1-(tert-butoxycarbonyl)azetidin-3-yl)-1H-indazol-3-yl)methoxy)phenyl)acetic acid]
Second: Nc1nccc2ccc(-c3ccc4nc(C5CC5)cc(COc5ccccc5CC(=O)O)c4c3)cc12 [Compound 12e, 2-(2-((6-(1-aminoisoquinolin-7-yl)-2-cyclopropylquinolin-4-yl)methoxy)phenyl)acetic acid]
The IC50 of the first is lower: under 1000 nM for the first, over 10000 nM for the second. The first is the more potent here.

First: COc1ccc(CC(=O)O)c(OCc2c3cc(-c4ccc5ccnc(N)c5c4)ccc3nn2C2CCOC2)c1 (stereo not drawn) [Compound 13c, 2-(2-((5-(1-aminoisoquinolin-7-yl)-2-(tetrahydrofuran-3-yl)-2H-indazol-3-yl)methoxy)-4-methoxyphenyl)acetic acid]
Second: COC(=O)Cc1ccc(OC)cc1OCc1c2cc(-c3ccc4ccnc(N)c4c3)ccc2nn1C1CCOC1 (stereo not drawn) [Compound 13d, methyl 2-(2-((5-(1-aminoisoquinolin-7-yl)-2-(tetrahydrofuran-3-yl)-2H-indazol-3-yl)methoxy)-4-methoxyphenyl)acetate]
The IC50 of the first is lower: 1000 to 10000 nM for the first, over 10000 nM for the second.

`Cc1ccc(CC(=O)O)c(OCc2c3cc(-c4ccc5ccnc(N)c5c4)ccc3nn2C2CCCCC2)c1` [Compound 15d, 2-(2-((5-(1-aminoisoquinolin-7-yl)-2-cyclohexyl-2H-indazol-3-yl)methoxy)-4-methylphenyl)acetic acid] and `Cc1ccc(CC(=O)O)c(OCc2c3cc(-c4ccc5ccnc(N)c5c4)ccc3nn2C2CCC2)c1` [Compound 17e, 2-(2-((5-(1-aminoisoquinolin-7-yl)-2-cyclobutyl-2H-indazol-3-yl)methoxy)-4-methylphenyl)acetic acid] cannot be ordered by IC50: over 10000 nM for the first, over 10000 nM for the second.

`COc1ccc(CC(=O)O)c(OCc2c3cc(-c4ccc5ccnc(N)c5c4)ccc3nn2C2CCCCC2)c1` [Compound 16c, 2-(2-((5-(1-aminoisoquinolin-7-yl)-2-cyclohexyl-2H-indazol-3-yl)methoxy)-4-methoxyphenyl)acetic acid] and `COc1ccc(CC(=O)O)c(OCc2c3cc(-c4ccc5ccnc(N)c5c4)ccc3nn2C2CCC2)c1` [Compound 20b, 2-(2-((5-(1-aminoisoquinolin-7-yl)-2-cyclobutyl-2H-indazol-3-yl)methoxy)-4-methoxyphenyl)acetic acid] fall in the same range of IC50: 1000 to 10000 nM for the first, 1000 to 10000 nM for the second.

Compared with `COc1ccc(CC(=O)O)c(OCc2c3cc(-c4cccc5c(N)nccc45)ccc3nn2C2CCC2)c1` [Compound 19c, 2-(2-((5-(1-aminoisoquinolin-5-yl)-2-cyclobutyl-2H-indazol-3-yl)methoxy)-4-methoxyphenyl)acetic acid], `COc1c(-c2ccc3nn(C4CCC4)c(COc4ccccc4CC(=O)O)c3c2)ccnc1C(=N)N` [Compound 24b, 2-(2-((5-(2-carbamimidoyl-3-methoxypyridin-4-yl)-2-cyclobutyl-2H-indazol-3-yl)methoxy)phenyl)acetic acid] is lower in IC50: 1000 to 10000 nM for the first, under 1000 nM for the second.

`COc1c(-c2ccc3nn(C4CCC4)c(COc4ccccc4CC(=O)O)c3c2)ccnc1C(=N)NO` [Compound 23g, 2-(2-((2-cyclobutyl-5-(2-(N-hydroxycarbamimidoyl)-3-methoxypyridin-4-yl)-2H-indazol-3-yl)methoxy)phenyl)acetic acid] showed an IC50 of 1000 to 10000 nM.
